{"source": "PubChem BioAssay (NCI)", "test_in_all_cases": "DTP human tumour cell line panel, 48 h", "key": {"786-0 renal": {"tested_on": "786-0 renal"}, "A498 renal": {"tested_on": "A498 renal"}, "A549 NSCLC": {"tested_on": "A549 NSCLC"}, "ACHN renal": {"tested_on": "ACHN renal"}, "CAKI-1 renal": {"tested_on": "CAKI-1 renal"}, "CCRF-CEM leukemia": {"tested_on": "CCRF-CEM leukemia"}, "COLO 205 colon": {"tested_on": "COLO 205 colon"}, "DU-145 prostate": {"tested_on": "DU-145 prostate"}, "EKVX NSCLC": {"tested_on": "EKVX NSCLC"}, "HCC-2998 colon": {"tested_on": "HCC-2998 colon"}, "HCT-116 colon": {"tested_on": "HCT-116 colon"}, "HCT-15 colon": {"tested_on": "HCT-15 colon"}, "HL-60(TB) leukemia": {"tested_on": "HL-60(TB) leukemia"}, "HOP-62 NSCLC": {"tested_on": "HOP-62 NSCLC"}, "HOP-92 NSCLC": {"tested_on": "HOP-92 NSCLC"}, "HS 578T breast": {"tested_on": "HS 578T breast"}, "HT29 colon": {"tested_on": "HT29 colon"}, "IGROV1 ovarian": {"tested_on": "IGROV1 ovarian"}, "K-562 leukemia": {"tested_on": "K-562 leukemia"}, "KM12 colon": {"tested_on": "KM12 colon"}, "M14 melanoma": {"tested_on": "M14 melanoma"}, "MALME-3M melanoma": {"tested_on": "MALME-3M melanoma"}, "MCF7 breast": {"tested_on": "MCF7 breast"}, "MDA-MB-231 breast": {"tested_on": "MDA-MB-231 breast"}, "MDA-MB-435": {"tested_on": "MDA-MB-435"}, "MDA-N": {"tested_on": "MDA-N"}, "MOLT-4 leukemia": {"tested_on": "MOLT-4 leukemia"}, "NCI-H226 lung": {"tested_on": "NCI-H226 lung"}, "NCI-H23 lung": {"tested_on": "NCI-H23 lung"}, "NCI-H460 lung": {"tested_on": "NCI-H460 lung"}, "NCI-H522 lung": {"tested_on": "NCI-H522 lung"}, "NCI/ADR-RES ovarian": {"tested_on": "NCI/ADR-RES ovarian"}, "OVCAR-4 ovarian": {"tested_on": "OVCAR-4 ovarian"}, "OVCAR-5 ovarian": {"tested_on": "OVCAR-5 ovarian"}, "OVCAR-8 ovarian": {"tested_on": "OVCAR-8 ovarian"}, "PC-3 prostate": {"tested_on": "PC-3 prostate"}, "RPMI-8226 leukemia": {"tested_on": "RPMI-8226 leukemia"}, "RXF 393 renal": {"tested_on": "RXF 393 renal"}, "SF-268 CNS": {"tested_on": "SF-268 CNS"}, "SF-295 CNS": {"tested_on": "SF-295 CNS"}, "SF-539 CNS": {"tested_on": "SF-539 CNS"}, "SK-MEL-2 melanoma": {"tested_on": "SK-MEL-2 melanoma"}, "SK-MEL-28 melanoma": {"tested_on": "SK-MEL-28 melanoma"}, "SK-MEL-5 melanoma": {"tested_on": "SK-MEL-5 melanoma"}, "SK-OV-3 ovarian": {"tested_on": "SK-OV-3 ovarian"}, "SN12C renal": {"tested_on": "SN12C renal"}, "SNB-19 CNS": {"tested_on": "SNB-19 CNS"}, "SNB-75 CNS": {"tested_on": "SNB-75 CNS"}, "SR leukemia": {"tested_on": "SR leukemia"}, "SW-620 colon": {"tested_on": "SW-620 colon"}, "T-47D breast": {"tested_on": "T-47D breast"}, "TK-10 renal": {"tested_on": "TK-10 renal"}, "U251 CNS": {"tested_on": "U251 CNS"}, "UACC-257 melanoma": {"tested_on": "UACC-257 melanoma"}, "UACC-62 melanoma": {"tested_on": "UACC-62 melanoma"}, "UO-31 renal": {"tested_on": "UO-31 renal"}}, "note": "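Dose response: 5 concentrations. Exposure: 48 h. Format: 96-well plates. Endpoint: linear interpolation; highest concentration if not reached. Definition used: TGI = concentration required for complete inhibition of growth.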", "data": [{"molecule": "O=C1OC[C@@H]2Cc3c([nH]c4ccccc34)[C@@H](c3cc(O)c(O)c(O)c3)N12", "values": [{"measurement": "TGI", "setting": "786-0 renal", "value": 56.1, "unit": "µM"}, {"measurement": "TGI", "setting": "A498 renal", "value": 48, "unit": "µM"}, {"measurement": "TGI", "setting": "A549 NSCLC", "value": "> 100", "unit": "µM"}, {"measurement": "TGI", "setting": "ACHN renal", "value": "> 100", "unit": "µM"}, {"measurement": "TGI", "setting": "CAKI-1 renal", "value": "> 100", "unit": "µM"}, {"measurement": "TGI", "setting": "CCRF-CEM leukemia", "value": 54.3, "unit": "µM"}, {"measurement": "TGI", "setting": "COLO 205 colon", "value": 42.6, "unit": "µM"}, {"measurement": "TGI", "setting": "DU-145 prostate", "value": "> 100", "unit": "µM"}, {"measurement": "TGI", "setting": "EKVX NSCLC", "value": "> 100", "unit": "µM"}, {"measurement": "TGI", "setting": "HCC-2998 colon", "value": "> 100", "unit": "µM"}, {"measurement": "TGI", "setting": "HCT-116 colon", "value": 61.5, "unit": "µM"}, {"measurement": "TGI", "setting": "HCT-15 colon", "value": "> 100", "unit": "µM"}, {"measurement": "TGI", "setting": "HL-60(TB) leukemia", "value": 15, "unit": "µM"}, {"measurement": "TGI", "setting": "HOP-62 NSCLC", "value": 67.8, "unit": "µM"}, {"measurement": "TGI", "setting": "HOP-92 NSCLC", "value": "> 100", "unit": "µM"}, {"measurement": "TGI", "setting": "HS 578T breast", "value": 76.2, "unit": "µM"}, {"measurement": "TGI", "setting": "HT29 colon", "value": "> 100", "unit": "µM"}, {"measurement": "TGI", "setting": "IGROV1 ovarian", "value": 49.7, "unit": "µM"}, {"measurement": "TGI", "setting": "K-562 leukemia", "value": 58.7, "unit": "µM"}, {"measurement": "TGI", "setting": "KM12 colon", "value": "> 100", "unit": "µM"}, {"measurement": "TGI", "setting": "M14 melanoma", "value": 36.7, "unit": "µM"}, {"measurement": "TGI", "setting": "MALME-3M melanoma", "value": 49.7, "unit": "µM"}, {"measurement": "TGI", "setting": "MCF7 breast", "value": 84.1, "unit": "µM"}, {"measurement": "TGI", "setting": "MDA-MB-231 breast", "value": 42.3, "unit": "µM"}, {"measurement": "TGI", "setting": "MDA-MB-435", "value": 25.9, "unit": "µM"}, {"measurement": "TGI", "setting": "MDA-N", "value": 82.5, "unit": "µM"}, {"measurement": "TGI", "setting": "MOLT-4 leukemia", "value": 85.9, "unit": "µM"}, {"measurement": "TGI", "setting": "NCI-H226 lung", "value": 49.9, "unit": "µM"}, {"measurement": "TGI", "setting": "NCI-H23 lung", "value": 98.6, "unit": "µM"}, {"measurement": "TGI", "setting": "NCI-H460 lung", "value": "> 100", "unit": "µM"}, {"measurement": "TGI", "setting": "NCI-H522 lung", "value": 22.8, "unit": "µM"}, {"measurement": "TGI", "setting": "NCI/ADR-RES ovarian", "value": 72.3, "unit": "µM"}, {"measurement": "TGI", "setting": "OVCAR-4 ovarian", "value": 26.1, "unit": "µM"}, {"measurement": "TGI", "setting": "OVCAR-5 ovarian", "value": 46.2, "unit": "µM"}, {"measurement": "TGI", "setting": "OVCAR-8 ovarian", "value": 41.8, "unit": "µM"}, {"measurement": "TGI", "setting": "PC-3 prostate", "value": "> 100", "unit": "µM"}, {"measurement": "TGI", "setting": "RPMI-8226 leukemia", "value": 65.8, "unit": "µM"}, {"measurement": "TGI", "setting": "RXF 393 renal", "value": 45.6, "unit": "µM"}, {"measurement": "TGI", "setting": "SF-268 CNS", "value": "> 100", "unit": "µM"}, {"measurement": "TGI", "setting": "SF-295 CNS", "value": 34, "unit": "µM"}, {"measurement": "TGI", "setting": "SF-539 CNS", "value": 37.9, "unit": "µM"}, {"measurement": "TGI", "setting": "SK-MEL-2 melanoma", "value": 18.9, "unit": "µM"}, {"measurement": "TGI", "setting": "SK-MEL-28 melanoma", "value": 42.9, "unit": "µM"}, {"measurement": "TGI", "setting": "SK-MEL-5 melanoma", "value": 29.2, "unit": "µM"}, {"measurement": "TGI", "setting": "SK-OV-3 ovarian", "value": "> 100", "unit": "µM"}, {"measurement": "TGI", "setting": "SN12C renal", "value": 98.9, "unit": "µM"}, {"measurement": "TGI", "setting": "SNB-19 CNS", "value": 69.1, "unit": "µM"}, {"measurement": "TGI", "setting": "SNB-75 CNS", "value": 60.9, "unit": "µM"}, {"measurement": "TGI", "setting": "SR leukemia", "value": 61.9, "unit": "µM"}, {"measurement": "TGI", "setting": "SW-620 colon", "value": 53.4, "unit": "µM"}, {"measurement": "TGI", "setting": "T-47D breast", "value": "> 100", "unit": "µM"}, {"measurement": "TGI", "setting": "TK-10 renal", "value": "> 100", "unit": "µM"}, {"measurement": "TGI", "setting": "U251 CNS", "value": 59.8, "unit": "µM"}, {"measurement": "TGI", "setting": "UACC-257 melanoma", "value": 9.73, "unit": "µM"}, {"measurement": "TGI", "setting": "UACC-62 melanoma", "value": 75.5, "unit": "µM"}, {"measurement": "TGI", "setting": "UO-31 renal", "value": "> 100", "unit": "µM"}]}]}
